Assay results published in the supplement of paper PMC4862054.

Experiments:
MDA-MB-468 [1] = test: drug sensitivity score (DSS), CellTiter-Blue viability (DSS (AUC-based score)); higher = stronger viability inhibition; extreme values may be limits of the assay; conditions: incubation time: 72 h
Method in brief: (§1)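 Into 384-well plates carrying compound in a 5- or 9-concentration series went 20 µl of breast cancer cell suspension, followed by 72 h of incubation. Adding 2.5 µl CellTiter-Blue per well and incubating 2 h at 37 °C preceded fluorescence measurement at 560/590 nm. After normalisation of each plate to 0.1 % DMSO and a positive kill control, dose-response curves were fitted and the area beneath them taken as the drug sensitivity score.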

CAL-148 [2] = test: as above; conditions: incubation time: 72 h
Method in brief: as §1

BT-474 [3] = test: normalised viability (% of control), CellTiter-Blue; higher = more viable cells (100 = DMSO, 0 = benzethonium chloride kill control); conditions: 1 nM; incubation time: 72 h
Protocol: (§2)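 DSRT, CellTiter-Blue viability, 72 h incubation. Signal is normalised to DMSO and benzethonium chloride controls. Value is the normalised response at dose 1.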

CAL-85-1 [4] = test: as above; conditions: 1 nM; incubation time: 72 h
Protocol: as §2

HCC1599 = test: normalised viability (% of control), CellTiter-Blue; higher = more viable cells (about 100 = DMSO control); conditions: incubation time: 72 h
Method in brief: (§3)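 Compound dissolved in 5 µl medium was pre-loaded into 384-well plates, and breast cancer cell lines in 20 µl suspension were seeded on top and incubated 72 h. After adding 2.5 µl CellTiter-Blue reagent for 2 h at 37 °C, fluorescence was read at 560/590 nm. Plates were normalised to vehicle (100) and a positive kill control (0), with Z'-factor quality control. Each value is normalised viability at a single listed concentration from the series.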

BT-474 [5] = test: as above; conditions: incubation time: 72 h
Method in brief: as §3

Hs578T = test: as above; conditions: incubation time: 72 h
Method in brief: as §3

CAL-85-1 [6] = test: as above; conditions: incubation time: 72 h
Method in brief: as §3

CAL-51 = test: as above; conditions: incubation time: 72 h
Method in brief: as §3

MDA-MB-436 = test: as above; conditions: incubation time: 72 h
Method in brief: as §3

BT-549 = test: as above; conditions: incubation time: 72 h
Method in brief: as §3

HDQ-P1 = test: as above; conditions: incubation time: 72 h
Method in brief: as §3

HCC1143 = test: as above; conditions: incubation time: 72 h
Method in brief: as §3

SK-BR-3 = test: as above; conditions: incubation time: 72 h
Method in brief: as §3

MFM-223 = test: as above; conditions: incubation time: 72 h
Method in brief: as §3

MDA-MB-468 [7] = test: as above; conditions: incubation time: 72 h
Method in brief: as §3

HCC1937 = test: as above; conditions: incubation time: 72 h
Method in brief: as §3

CAL-148 [8] = test: as above; conditions: incubation time: 72 h
Method in brief: as §3

MDA-MB-231 = test: as above; conditions: incubation time: 72 h
Method in brief: as §3

DU-4475 = test: as above; conditions: incubation time: 72 h
Method in brief: as §3

MDA-MB-453 = test: as above; conditions: incubation time: 72 h
Method in brief: as §3

CAL-120 = test: as above; conditions: incubation time: 72 h
Method in brief: as §3

COc1cc([C@@H]2c3cc4c(cc3[C@@H](O[C@@H]3O[C@@H]5CO[C@@H](c6cccs6)O[C@H]5[C@H](O)[C@H]3O)[C@H]3COC(=O)[C@H]23)OCO4)cc(OC)c1O [Teniposide]
Conditions	drug sensitivity score	normalised viability [%]
BT-474 [3]	–	87.9
CAL-85-1 [4]	–	105
CAL-148 [2]	18.5	–
MDA-MB-468 [1]	10.9	–

normalised viability [%]
Conditions	3 nM	10 nM	30 nM	100 nM	1000 nM	10000 nM
BT-474 [5]	–	118	–	–	113	50.8
BT-549	–	101	–	–	62.4	8.99
CAL-51	98.2	–	78.2	43.4	–	–
CAL-85-1 [6]	103	–	89.7	94.5	–	–
CAL-120	–	108	–	–	55.9	10.3
CAL-148 [8]	103	–	69.3	61	–	–
DU-4475	82	–	67.8	28.1	–	–
HCC1143	–	95.6	–	–	49.5	20.5
HCC1599	–	80.8	–	–	65.1	47.9
HCC1937	–	82.3	–	–	21	18.8
HDQ-P1	113	–	113	104	–	–
Hs578T	–	109	–	–	94.5	12.2
MDA-MB-231	–	103	–	–	73.7	13.8
MDA-MB-436	–	92.1	–	–	55.1	23.6
MDA-MB-453	135	–	92.8	109	–	–
MDA-MB-468 [7]	–	99.1	–	–	54.2	15.6
MFM-223	–	99.3	–	–	84.4	13.1
SK-BR-3	–	105	–	–	20.9	7.84
